Test results: publication PMC3970910 (Biochemistry, 2013)

Experiments:
human osteoclast = settings: human osteoclasts in vitro; cited from earlier work
mouse osteoclast = settings: mouse osteoclasts in vitro; cited from earlier work
GPR18 = settings: cited from earlier work
untransfected U2OS cells = assay: ERK1/2 phosphorylation in untransfected U2OS cells; assay type: cell-based

Row | Molecule | effect on osteoclast polarization and resorption produced by GPR55 agonists O-1602 and LPI (human osteoclast) | effect on osteoclast polarization and resorption produced by GPR55 agonists O-1602 and LPI (mouse osteoclast) | activity at GPR18 (GPR18) | Induction of ERK1/2 phosphorylation in untransfected U2OS cells (untransfected U2OS cells)
1 | C=C(C)[C@@H]1CCC(C)=C[C@H]1c1c(O)cc(CCCCC)cc1O [CBD, cannabidiol] | attenuating the effects | attenuating the effects | low efficacy agonist | 
2 | L-α-lysophosphatidylinositol [LPI] |  |  |  | neither LPI nor any of the antagonist compounds induced ERK1/2 phosphorylation
